Consider one molecule from patent US20080260726A1, “Organic Compounds” (priority 2005, published 2008).

Structures are written as SMILES.

The test system of experiment [1] is goblet cell formation in HBECs. Put plainly: Goblet cell formation with Compound A in basolateral medium, 45M1 and AB/PAS staining. Format: cell-based, human. How it is done:
The siRNA duplexes are transfected into HBECs using […]. Transfection medium is prepared by mixing OPTI-MEM® I reduced serum medium (Invitrogen Corp.), siRNA duplex (5× final concentration) and Lipofectamine 2000™ (5× final concentration), incubating at room temperature for 30 minutes, then diluting 1:5 in antibiotic free differentiation medium (DIFF-AB medium; bronchial epithelial basal medium and Dulbeccos modified eagles medium [50:50] plus bronchial epithelial growth medium SingleQuots [bovine pituitary extract, insulin, hydrocortisone, all-trans retinoic acid, transferrin, epinephrine, tri-iodothyronine and human epidermal growth factor at the recommended concentrations, but no tri-iodothyronine and gentamycin/amphotericin B], all obtained from BioWhittaker) prior to addition to HBECs. For these experiments an abbreviated version of the HBEC model is used in which HBECs are maintained as submerged cultures for 3 days and then transferred to ALI for 6 days. Cells from a passage 2 (P2) stock of HBEC donor 2F1578 are cultured as described in Atherton et al. Am. J. Physiol. Lung Cell Mol. Physiol. (2003) 285: L730-L739 to approximately 85% confluence before harvesting for transfection. After trypsinisation and recovery by centrifugation, cells are resuspended at a density of 16.5×10^4 cells per ml in DIFF-AB medium containing siRNA duplex (10 nM) and Lipofectamine 2000™ (1 μl per ml) and seeded onto 12 well Transwell Clear inserts. One ml of HBEC/DIFF-AB medium/siRNA/lipofectamine 2000™ mix is deposited onto each insert and 1 ml of DIFF-AB medium is added to the basolateral chamber of each insert. After 24 hours (day 1 of submerged culture), all media is aspirated (apically and basolaterally) and replaced with 0.5 ml apically and 1 ml basolaterally of DIFF-AB medium containing 50 μg per ml gentamycin but no amphotericin B (DIFF-AB+G). On day 3, DIFF-AB+G medium is aspirated from the apical and basolateral surfaces and HBECs are cultured at ALI with DIFF-AB+G medium containing 1 ng per ml IL13. All cells are incubated at 37° C., 5% CO2 and 95% relative humidity. The basolateral medium is aspirated at days 5 and 7 and replaced with 1 ml DIFF-AB+G medium containing IL13. In addition the apical surface is rinsed with 0.5 ml phosphate buffered saline (PBS) to remove accumulated cell debris/mucus. Cells are harvested for total RNA extraction at days 3, 5, 7 and 9 as described above, and for goblet cell analysis by histology at day 9. For histology, inserts are fixed by the addition of 0.5 ml 10% neutral buffered formalin (NBF) to the apical surface followed by 1 ml NBF to the basolateral surface. After 24 hours of fixation the inserts are bisected and processed to RALwax through graded industrial methylated spirit (IMS) and chloroform. Both halves of the insert are embedded on edge using fresh RALwax. The paraffin blocks are sectioned at […] and stained with 45M1 antibody (an anti-MUCSAC antibody obtained from Lab-Vision Neomarkers) and alcian blue/haematoxylin and eosin (AB/H&E) according to standard histological protocols to enable detection of mucin and discrimination of individual cells by nuclear staining. The stained slides are examined microscopically.
[…] The effect on goblet cell formation is examined histologically by 45M1 and AB/PAS staining per unit length of epithelium.
A modest effect at 10 μM is seen, with no effect at 0.1 and 1 μM.

The test system of experiment [2] is mucus secretion in differentiated HBECs. Put plainly: ATP-γS-induced mucin secretion in differentiated HBECs, enzyme-linked lectin assay (ELLA). Format: cell-based, human. As for the experimental part: The effect of siRNA knockdown of CTSC expression on mucin secretion in differentiated HBECs is examined using the CTSC SMARTPOOL at different concentrations (0.3-10 nM). Adenosine triphosphate is used as a mucin secretagogue and secreted mucin is measured using an enzyme-linked lectin assay (ELLA; Kemp, Sugar and Jackson Am. J. Respir. Cell Mol. Biol. (2004) 31: 446-455). HBECs (16.5×10^4 cells per insert from donor 2F1S78) are transfected and cultured using the 9 day differentiation model as described in Example 2. At day 9 (6 days ALI) HBEC inserts are exposed to 100 μM ATP-γS for 10 minutes and supernatants are removed for analysis by ELLA. ATP-γS-induced mucus secretion is inhibited at all CTSC siRNA SMARTPOOL concentrations, but is unaffected by either cyclophilin B siRNA or Lipofectamine alone.
The effect of Compound A on mucus secretion in the 9 day model is examined by adding the compound at various concentrations (0.1-10 μM) to the apical surface in minimal medium containing 0.1% dimethyl sulphoxide (DMSO) and incubating for 30 minutes at 37° C., followed by 10 minutes exposure to 100 μM ATP-γS.

With `CCCS(=O)(=O)Nc1ccc(Cc2cc3cnc(C#N)nc3n2CC(C)(C)C)cc1` [Compound A, propane-1-sulfonic acid {4-[2-cyano-7-(2,2-dimethyl-propyl)-7H-pyrrolo[2,3-d]pyrimidin-6-ylmethyl]-phenyl}-amide], the “45M1 and AB/PAS staining per unit length of epithelium” value in experiment [1] (Table 6, 9 day model (6 days ALI), 0.1 uM + IL13) was “no effect”; in experiment [1] (Table 6, 9 day model (6 days ALI), 0.1 uM + IL13, listed as Compd A), 2.533; in experiment [1] (Table 6, 9 day model (6 days ALI), 1 uM + IL13), “no effect”; in experiment [1] (Table 6, 9 day model (6 days ALI), 1 uM + IL13, listed as Compd A), 2.621; in experiment [1] (Table 6, 9 day model (6 days ALI), 10 uM + IL13) it was “modest effect”; in experiment [1] (Table 6, 9 day model (6 days ALI), 10 uM + IL13, listed as Compd A), 1.424. The “45M1 and AB/PAS staining per unit length of epithelium” value in experiment [1] (Table 6, 9 day model (6 days ALI), 10 uM, no IL13) is listed as 0.300; in experiment [1] (Table 7, 11 days at ALI, 0.1 uM + IL-13 1 ng/ml), 3.609; in experiment [1] (Table 7, 11 days at ALI, 1 uM + IL-13 1 ng/ml) it was 3.700; in experiment [1] (Table 7, 11 days at ALI, 10 uM + IL-13 1 ng/ml), “greater inhibition”; in experiment [1] (Table 7, 11 days at ALI, 10 uM + IL-13 1 ng/ml, listed as Compd A) it was 0.886; in experiment [1] (Table 7, 11 days at ALI, 10 uM, no IL-13), 0.153. The “mucus secretion (Vehicle = 100.00)” value in experiment [2] (Compd A (0.1 μM), 30 minutes, then 100 μM ATP-γS 10 minutes) was 203.51; in experiment [2] (Compd A (10 μM) only, no ATP, 30 minutes apical, 9 day model) it was 88.99; in experiment [2] (Compd A (10 μM), first column so headed, 30 minutes, then 100 μM ATP-γS 10 minutes), 120.18; in experiment [2] (Compd A (10 μM), second column so headed, 30 minutes, then 100 μM ATP-γS 10 minutes), 177.02. Moreover, in experiment [2] (Compound A 0.1-10 μM, 100 μM ATP-γS), the “mucus secretion (in words)” value is “dose-dependently inhibits”.
